Entries after “also recorded” stand apart in the source; their conditions may differ. Read-outs that look alike come from different tables or passages of the source.
What was measured:
PEDV PL2^pro [1] = biological target: T1, PEDV PL2^pro (Porcine epidemic diarrhea virus, UniProt V5W8W2); test: biochemical; type: biochemical
human USP2 = settings: cited from earlier work
PEDV PL2^pro [2] = biological target: T1, PEDV PL2^pro; type: biochemical

## Sc1ncnc2nc[nH]c12 [6MP, 6-mercaptopurine]
PEDV PL2^pro [1]
  IC50: 58.1 ± 5.7 µM

## Nc1nc2nc[nH]c2c(=S)[nH]1 [6TG, 6-thioguanine]
Human USP2
  pattern of inhibition: noncompetitive inhibitory effect
PEDV PL2^pro [1]
  IC50 of 6TG fold lower than that of 6MP: 4.2 fold
PEDV PL2^pro [2]
  pattern of inhibition: noncompetitive inhibitor; also recorded: noncompetitive pattern of inhibition

## CCN(CC)C(=S)SSC(=S)N(CC)CC [Disulfiram]
PEDV PL2^pro [1]
  IC50: > 100 µM

## O=C(O)CN(CCN(CC(=O)O)CC(=O)O)CC(=O)O [EDTA]
PEDV PL2^pro [1]
  inhibition of DUB activity by EDTA (in words): dose-dependent pattern

## Cc1ccc(N)cc1C(=O)N[C@H](C)c1cccc2ccccc12 [GRL0617]
PEDV PL2^pro [1]; read-out: IC50 (DUB activity), pH 6.5
  IC50: > 100 µM

## O=c1[nH]cnc2nc[nH]c12 [Hypoxanthine]
PEDV PL2^pro [1]
  IC50: > 200 µM
  inhibitory activity (in words): devoid of inhibitory activity

## COc1c(C)c2c(c(O)c1C/C=C(\C)CCC(=O)O)C(=O)OC2 [Mycophenolic acid]
PEDV PL2^pro [1]
  IC50: > 200 µM

## zinc ions
PEDV PL2^pro [1]
  inhibition of DUB activity by external zinc ions (in words): can be inhibited
